Measured values reported in patent publication US20220403431A1, “GLYCOMINIMIZED BACTERIAL HOST CELLS” (INBIOSE N.V., priority 2020, published 2022).

Key:
[1] = system: glycominimized (GM) E. coli strain; test: Osmotic stress sensitivity assay, GM strain compared to WT strain; type: cell-based, Escherichia coli K-12 MG1655; details: minimal medium
Protocol: Cells were cultured in Greiner Bio-One (Vilvoorde, Belgium) polystyrene F-bottom 96 well plates using the defined medium described above and inoculated 1% from precultures, which were grown in a carbon limiting 2.2 g/L glucose H2O defined medium variant. For the minimum inhibitory concentration (MIC) determination and osmotic stress sensitivity experiments, antibiotics resp. salts were supplemented to the medium in a 100 mL volumetric flask and subsequently filter sterilized using a […] Corning filter system. Each strain was grown in multiple wells of the 96-well plate as biological replicates. These final 96-well culture plates were then incubated at 30° C. on an orbital shaker at 800 rpm for 72h, or longer
The maximal growth rate (Max) was calculated based on the observed optical densities at 600 nm using the R package grofit.
To test the osmotic stress sensitivity of an E. coli strain, a concentration array of KCl, NaCl and sucrose was applied, and growth of the strain recorded. The growth rate was calculated and plotted in function of the concentration of each solute as well as of the osmotic pressure. The osmotic pressure π is calculated as π=i*C*R*T whereby i is the dimensionless Van't Hoff index, C the concentration of the solute (mol/L), R the ideal gas constant and T the temperature (K). For salts that dissociate in water, the Van't Hoff index is the sum of all ions originating from one molecule.
Since the semi-permeable membrane of the GM strain is severely altered compared to that of the WT strain, the osmotic sensitivity of both strains was compared toward KCl, NaCl and sucrose.

[2] = system: glycominimized (GM) E. coli strain; test: Growth rate and MIC in minimal medium with increasing antibiotic concentrations, GM strain compared to WT strain; type: cell-based, Escherichia coli K-12 MG1655
Protocol: Cells were cultured in Greiner Bio-One (Vilvoorde, Belgium) polystyrene F-bottom 96 well plates using the defined medium described above and inoculated 1% from precultures, which were grown in a carbon limiting 2.2 g/L glucose H2O defined medium variant. For the minimum inhibitory concentration (MIC) determination and osmotic stress sensitivity experiments, antibiotics resp. salts were supplemented to the medium in a 100 mL volumetric flask and subsequently filter sterilized using a 0,22 m Corning filter system. Each strain was grown in multiple wells of the 96-well plate as biological replicates. These final 96-well culture plates were then incubated at 30° C. on an orbital shaker at 800 rpm for 72h, or longer
Cell density of the cultures was frequently monitored by measuring optical density at 600 nm (Implen Nanophotometer NP80, Westburg, Belgium) or with a Spark 1OM microplate reader (Tecan, Switzerland).
The minimum inhibitory concentration (MIC) was determined as the lowest concentration of an antibiotic where the growth rate was less or equal than 10% of the growth rate when no antibiotic was added.
In this experiment, the growth rate was measured for both the wildtype and the GM strain when grown in media containing increasing antibiotic concentrations.

[3] = at 5 g/L concentrations of the salt solutes

## OC[C@H]1O[C@@](CO)(O[C@H]2O[C@H](CO)[C@@H](O)[C@H](O)[C@H]2O)[C@@H](O)[C@@H]1O [sucrose]
[1]; up till 64 g/L sucrose
  osmotic sensitivity of the GM strain compared to the WT strain (relative specific growth rate, FIG. 2): equally sensitive

## [Cl-].[K+] [KCl]
[1]; [3]
  osmotic sensitivity of the GM strain compared to the WT strain (relative specific growth rate, FIG. 2): equally sensitive

## CC[C@H]1OC(=O)[C@H](C)[C@@H](O[C@H]2C[C@@](C)(OC)[C@@H](O)[C@H](C)O2)[C@H](C)[C@@H](O[C@@H]2O[C@H](C)C[C@H](N(C)C)[C@H]2O)[C@](C)(O)C[C@@H](C)C(=O)[C@H](C)[C@@H](O)[C@]1(C)O [erythromycin]
[2]; MIC = lowest concentration where growth rate is less or equal than 10% of growth rate without antibiotic, both strains compared
  minimum inhibitory concentration (MIC), GM strain vs WT strain: similar
[2]; minimal medium, increasing antibiotic concentrations, GM vs WT strain
  sensitivity of the GM strain to the antibiotic compared to the WT strain (relative specific growth rate, FIG. 1): similarly sensitive

## [Cl-].[Na+] [NaCl]
[1]; [3]
  osmotic sensitivity of the GM strain compared to the WT strain (relative specific growth rate, FIG. 2): equally sensitive
